Measured values taken from patent US7420001B2 (Wyeth, priority 2003, dated 2008).
Where a name gives a salt, the structure may show the parent alone. Read-outs that look alike come from different tables or passages of the source.

How the values were obtained:
MMP-2 = biological target: T1, MMP-2 (Homo sapiens, UniProt P08253); experiment: In-vitro fluorescence assay of MMP-2 activity; format: biochemical; details: recombinant human MMP-2; read-out: MMP-2 IC50
T1 construct: purchased Oncogene Research Products (Calbiochem) PF023
T1 sequence (P08253 110-660): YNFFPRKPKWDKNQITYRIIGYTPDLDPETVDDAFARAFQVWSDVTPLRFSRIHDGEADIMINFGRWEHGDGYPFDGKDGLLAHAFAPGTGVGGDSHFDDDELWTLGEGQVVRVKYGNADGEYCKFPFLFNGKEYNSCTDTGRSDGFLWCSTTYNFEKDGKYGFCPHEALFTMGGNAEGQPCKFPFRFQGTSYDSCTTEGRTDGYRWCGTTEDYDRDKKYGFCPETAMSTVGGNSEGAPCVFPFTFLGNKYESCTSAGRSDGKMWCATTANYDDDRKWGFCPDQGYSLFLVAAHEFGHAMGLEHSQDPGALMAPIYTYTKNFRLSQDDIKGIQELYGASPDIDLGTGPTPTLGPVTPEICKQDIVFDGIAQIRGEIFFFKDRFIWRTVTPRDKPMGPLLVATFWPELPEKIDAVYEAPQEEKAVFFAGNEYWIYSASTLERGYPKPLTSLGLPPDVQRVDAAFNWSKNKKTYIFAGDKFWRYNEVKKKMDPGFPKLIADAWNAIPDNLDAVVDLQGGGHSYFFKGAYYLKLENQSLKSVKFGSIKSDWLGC
Text: A continuous assay was used in which the substrate is a synthetic peptide containing a fluorescent group (7-methoxycoumarin; Mca) which is quenched by energy transfer to a 2,4-dinitrophenyl group. […] The source of enzyme in the assay was the recombinant human MMP-2 (66 kDa) purchased from Oncogene Research Products (catalog number PF023 from Calbiochem). The substrate used was Mca-PQGL-(3-[2,4-dinitrophenyl]-L-2,3-diaminopropionyl)-AR-OH (denoted as Wammp-5, custom synthesized by AnaSpec, Inc.). The assay buffer consisted of 50 mM Hepes (pH 7.4), 100 mM NaCl, 5 mM CaCl2, and 0.005% Brij-35. […] The enzymatic reactions were initiated by adding the substrate to a final concentration of 20 μM, and mixing 10 times with a pipette. The final DMSO concentration in the assay was 6.0%.
(§1) Plots of the inhibitor concentration vs. the percent inhibition were fit to the following equation: y=(a−d)/[1+(x/c)^b]+d, a general sigmoidal curve with Hill slope, a to d. x is the inhibitor concentration under test. y is the percent inhibition. a is the limiting response as x approaches zero. As x increases without bound, y tends toward its limit d. c is the inflection point (IC50) for the curve. That is, y is halfway between the lower and upper asymptotes when x=c. b is the slope factor or Hill coefficient.

MMP-13 = biological target: T2, MMP-13 (Homo sapiens, UniProt P45452); experiment: In-vitro fluorescence assay of MMP-13 activity; format: biochemical
T2 construct: made in house

MMP-14 = biological target: T3, MMP-14 (Homo sapiens, UniProt P50281); experiment: In-vitro fluorescence assay of MMP-14 activity; format: biochemical
T3 construct: 20 kDa; purchased Chemicon International, Inc. CC 1041
Experimental: A continuous assay was used in which the substrate is a synthetic peptide containing a fluorescent group (7-methoxycoumarin; Mca) which is quenched by energy transfer to a 2,4-dinitrophenyl group. […] The substrate used was Mca-PQGL-(3-[2,4-dinitrophenyl]-L-2,3-diaminopropionyl)-AR-OH (denoted as Wammp-5, custom synthesized by AnaSpec, Inc.). The assay buffer consisted of 50 mM Hepes (pH 7.4), 100 mM NaCl, 5 mM CaCl2, and 0.005% Brij-35. […] The enzymatic reactions were initiated by adding the substrate to a final concentration of 20 μM, and mixing 10 times with a pipette. The final DMSO concentration in the assay was 6.0%.
as §1

MMP-1 = biological target: T4, MMP-1 (Homo sapiens, UniProt P03956)
T4 sequence (P03956 100-269 limits assumed): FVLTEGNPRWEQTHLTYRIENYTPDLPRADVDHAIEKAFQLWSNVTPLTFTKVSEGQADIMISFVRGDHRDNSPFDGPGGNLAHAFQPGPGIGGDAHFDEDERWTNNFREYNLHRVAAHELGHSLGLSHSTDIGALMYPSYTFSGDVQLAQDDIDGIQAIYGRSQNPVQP
Experimental: A continuous assay was used in which the substrate is a synthetic peptide containing a fluorescent group (7-methoxycoumarin; Mca) which is quenched by energy transfer to a 2,4-dinitrophenyl group. […] The substrate used was Mca-PQGL-(3-[2,4-dinitrophenyl]-L-2,3-diaminopropionyl)-AR-OH (denoted as Wammp-5, custom synthesized by AnaSpec, Inc.). The assay buffer consisted of 50 mM Hepes (pH 7.4), 100 mM NaCl, 5 mM CaCl2, and 0.005% Brij-35. Each well of black polystyrene 96-well plates contained a 200 μL reaction mixture consisting of assay buffer, purified MMP (final concentration of 25 ng/ml, prepared by diluting with the assay buffer), and varied concentrations of inhibitor (prepared by serially diluting a given inhibitor in DMSO in 96-well polypropylene plate). […] The enzymatic reactions were initiated by adding the substrate to a final concentration of 20 μM, and mixing 10 times with a pipette. The final DMSO concentration in the assay was 6.0%.
as §1

[1] = recombinant human catalytic domain of MMP-13, read-out: MMP-13 IC50
[2] = recombinant human catalytic domain of MMP-14

Compound | IC50 (MMP-2) [nM] | IC50 (MMP-13; [1]) [nM] | IC50 (MMP-14) [nM] | IC50 (MMP-1; read-out: MMP-1 IC50, recombinant human catalytic domain of MMP-1) [nM] | IC50 (MMP-14; [2]) [nM] | IC50 (MMP-1) [nM] | IC50 (MMP-13; MMP-13 IC50, recombinant human catalytic domain of MMP-13) [nM]
COc1c(Br)ccc2oc(C(=O)Nc3ccc(-c4ccc(S(=O)(=O)N[C@H](C(=O)O)C(C)C)cc4)cc3)c(C)c12 [Example 118, (S)-2-{4′-[(5-bromo-4-methoxy-3-methyl-benzofuran-2-carbonyl)-amino]-biphenyl-4-sulfonylamino}-3-methyl-butyric acid] | 1700 | 2.3 | 14600 | 30000 |  |  | 
CN(CC(=O)O)S(=O)(=O)c1ccc(-c2ccc(NC(=O)c3cc4ccccc4o3)cc2)cc1 [Example 79, N-({4′-[(1-Benzofuran-2-ylcarbonyl)amino]-1,1′-biphenyl-4-yl}sulfonyl)-N-methylglycine] | 35 | 40 |  |  | 24000 | 500000 | 
CC(C)[C@H](C(=O)O)N(C)S(=O)(=O)c1ccc(-c2ccc(NC(=O)c3cc4ccccc4o3)cc2)cc1 [Example 77, N-({4′-[(1-benzofuran-2-ylcarbonyl)amino]-1,1′-biphenyl-4-yl}sulfonyl)-N-methyl-D-valine] | 6 | 5.7 |  |  | 7110 | 15000 | 
CC(C)[C@H](NS(=O)(=O)c1ccc(-c2ccc(NC(=O)c3cc4ccccc4[nH]3)cc2)cc1)C(=O)O [Example 3] |  |  |  |  | 5600 |  | 
Cc1cc(C(=O)Nc2ccc(-c3ccc(S(=O)(=O)N[C@H](C(=O)O)C(C)C)cc3)cc2)nn1-c1ccccc1 [Example 168, (S)-3-Methyl-2-{4′-[(5-methyl-1-phenyl-1H-pyrazole-3-carbonyl)-amino]-biphenyl-4-sulfonylamino}-butyric acid] | 1290 | 99 |  |  | 36000 | 60000 | 
CC(C)[C@@H](C(=O)O)N(CCN1CCOCC1)S(=O)(=O)c1ccc(-c2ccc(NC(=O)c3cc4ccccc4o3)cc2)cc1 [Example 82, N-({4′-[(1-Benzofuran-2-ylcarbonyl)amino]-1,1′-biphenyl-4-yl}sulfonyl)-N-(2-morpholin-4-ylethyl)-L-valine] | 30 | 18 |  |  | > 60000 | > 10000 | 
Cc1c(COc2ccc(-c3ccc(S(=O)(=O)N[C@@H](C(=O)O)C(C)C)cc3)cc2)oc2ccccc12 [Example 139, D-3-Methyl-2-[4′-(3-methyl-benzofuran-2-ylmethoxy)-biphenyl-4-sulfonylamino]-butyric acid] | 28 | 4.4 |  |  | 3500 |  | 
O=C(O)CNS(=O)(=O)c1ccc(-c2ccc(NC(=O)c3cc4ccccc4o3)cc2)cc1 [Example 1, N-({4′-[(1-benzofuran-2-ylcarbonyl)amino]-1,1′-biphenyl-4-yl}sulfonyl)glycine] | 47 | 35 |  |  | 13900 |  | 
CC(C)[C@H](NS(=O)(=O)c1ccc(-c2ccc(NC(=O)c3csc(-c4ccncc4)n3)cc2)cc1)C(=O)O [Example 169, (S)-3-Methyl-2-{4′-[(2-pyridin-4-yl-thiazole-4-carbonyl)-amino]-biphenyl-4-sulfonylamino}-butyric acid] | 1190 | 75 |  |  | 40000 | 40400 | 
Cc1c(C(=O)Nc2ccc(-c3ccc(S(=O)(=O)N[C@H](C(=O)O)C(C)C)cc3)cc2)oc2cccc(-c3ccccc3)c12 [Example 109, (S)-3-Methyl-2-{4′-[(3-methyl-4-phenyl-benzofuran-2-carbonyl)-amino]-biphenyl-4-sulfonylamino}-butyric acid] | 3650 |  |  |  | 7000 | 11000 | 15
CC(C)[C@H](NS(=O)(=O)c1ccc(-c2ccc(NC(=O)c3cc4c(ccc5ccccc54)o3)cc2)cc1)C(=O)O [Example 153, L-3-Methyl-2-{4′-[(naphtho[2,1-b]furan-2-carbonyl)-amino]-biphenyl-4-sulfonylamino}-butyric acid] | 14 | 0.5 |  |  | 17000 | 40000 | 
CC(C)[C@H](NS(=O)(=O)c1ccc(-c2ccc(NC(=O)c3ccco3)cc2)cc1)C(=O)O [Example 175, (S)-2-{4′-[(Furan-2-carbonyl)-amino]-biphenyl-4-sulfonylamino}-3-methyl-butyric acid] | 5.7 | 11 |  |  | 2910 | 3090 | 
Cc1c(C(=O)Nc2ccc(-c3ccc(S(=O)(=O)N[C@@H](C(=O)O)C(C)C)cc3)cc2)oc2ccccc12 [Example 74, D-3-Methyl-2-{4′-[(3-methyl-benzofuran-2-carbonyl)-amino]-biphenyl-4-sulfonylamino}-butyric acid] | 93 | 13 |  |  | 29 | 28300 | 
CC(C)[C@@H](NS(=O)(=O)c1ccc(-c2ccc(OC(=O)c3cc4ccccc4o3)cc2)cc1)C(=O)O [Example 135, Benzofuran-2-carboxylic acid 4′-(1-carboxy-2-methyl-propylsulfamoyl)-biphenyl-4-yl ester] | 0.7 | 0.5 |  |  | 2000 | 20000 | 
CC(C)[C@@H](NS(=O)(=O)c1ccc(-c2ccc(OCc3cc4ccccc4o3)cc2)cc1)C(=O)O [Example 141, D-2-[4′-(Benzofuran-2-ylmethoxy)-biphenyl-4-sulfonylamino]-3-methyl-butyric acid] | 2.5 | 1.1 |  |  | 500 |  | 
Cc1c(C(=O)Nc2ccc(-c3ccc(S(=O)(=O)N[C@H](C(=O)O)C(C)C)cc3)cc2)oc2ccccc12 [Example 83, N-[(4′-{[(3-Methyl-1-benzofuran-2-yl)carbonyl]amino}-1,1′-biphenyl-4-yl)sulfonyl]-L-valine] | 259 | 5.9 |  |  | 12400 | 24300 | 
CC(C)[C@H](NS(=O)(=O)c1ccc(-c2ccc(NC(=O)c3cccs3)cc2)cc1)C(=O)O [Example 174, (S)-3-Methyl-2-{4′-[(thiophene-2-carbonyl)-amino]-biphenyl-4-sulfonylamino}-butyric acid] | 61 | 25 |  |  | 6130 | 7400 | 
Cc1c(C(=O)Nc2ccc(-c3ccc(S(=O)(=O)N[C@H](C(=O)O)C(C)C)cc3)cc2)oc2cccc(C(=O)N(C)C)c12 [Example 43B, 2-{4′-[(4-dimethylcarbamoyl-3-methyl-benzofuran-2-carbonyl)-amino]-biphenyl-4-sulfonylamino}-3-methyl-butyric acid triethylamine salt] | 7770 | 18 |  |  |  |  | 
CCOC(=O)COc1cccc2oc(C(=O)Nc3ccc(-c4ccc(S(=O)(=O)N[C@H](C(=O)O)C(C)C)cc4)cc3)c(C)c12 [Example 157, L-2-{4′-[(4-Ethoxycarbonylmethoxy-3-methyl-benzofuran-2-carbonyl)-amino]-biphenyl-4-sulfonylamino}-3-methyl-butyric acid] | 2050 | 8.8 |  |  |  |  | 
Cc1c(C(=O)Nc2ccc(-c3ccc(S(=O)(=O)N[C@H](C(=O)O)C(C)C)cc3)cc2)oc2cccc(N(C)S(C)(=O)=O)c12 [Example 37, L-2-(4′-{[4-(Methanesulfonyl-methyl-animo)-3-methyl-benzofuran-2-carbonyl]-amino}-biphenyl-4-sulfonylamino)-3-methyl-butyric acid] | 2340 | 16 |  |  |  |  | 
Cc1c(C(=O)Nc2ccc(-c3ccc(S(=O)(=O)N[C@H](C(=O)O)C(C)C)cc3)cc2)oc2cccc(-c3ccncc3)c12 [Example 112, (S)-3-Methyl-2-{4′-[(3-methyl-4-pyridin-4-yl-benzofuran-2-carbonyl)-amino]-biphenyl-4-sulfonylamino}-butyric acid] | 2670 | 8.5 |  |  |  |  | 
Cc1c(C(=O)Nc2ccc(-c3ccc(S(=O)(=O)N[C@H](C(=O)O)C(C)C)cc3)cc2)oc2cccc(NC(=O)OC(C)(C)C)c12 [Example 59, L-2-{4′-[(4-tert-Butoxycarbonylamino-3-methyl-benzofuran-2-carbonyl)-amino]-biphenyl-4-sulfonylamino}-3-methyl-butyric acid] | 3270 | 32 |  |  |  |  | 
NC(=O)C[C@H](NS(=O)(=O)c1ccc(-c2ccc(NC(=O)c3cc4ccccc4o3)cc2)cc1)C(=O)O [Example 15, N2-({4′-[(1-Benzofuran-2-ylcarbonyl)animo]-1,1′-biphenyl-4-yl}sulfonyl)-L-Asparagine] | 10 | 2.5 |  |  |  |  | 
Cc1c(C(=O)Nc2ccc(-c3ccc(S(=O)(=O)N[C@H](C(=O)O)C(C)C)cc3)cc2)oc2cccc(O)c12 [Example 161, L-2-{4′-[(4-Hydroxy-3-methyl-benzofuran-2-carbonyl)-amino]-biphenyl-4-sulfonylamino}-3-methyl-butyric acid] | 379 | 6.1 |  |  |  |  | 
